Data as given in patent US20190119282A1, “IMIDAZOPYRIDAZINES USEFUL AS INHIBITORS OF THE PAR-2 SIGNALING PATHWAY” (Vertex Pharmaceuticals Incorporated, priority 2013, published 2019).
pIC50: −log10 of the molar value.

Experiments:
[1] = biological target: T1, PAR2 (HT-29 cells, trypsin activation) (Homo sapiens, UniProt P55085); assay: Ca FLIPR TETRA assay, ANTAGONIST mode, stimulation with 3.1 U/mL trypsin; assay type: cell-based; details: HT-29 cells
T1 construct: host or cells: HT-29 cells
T1 sequence (P55085 26-397): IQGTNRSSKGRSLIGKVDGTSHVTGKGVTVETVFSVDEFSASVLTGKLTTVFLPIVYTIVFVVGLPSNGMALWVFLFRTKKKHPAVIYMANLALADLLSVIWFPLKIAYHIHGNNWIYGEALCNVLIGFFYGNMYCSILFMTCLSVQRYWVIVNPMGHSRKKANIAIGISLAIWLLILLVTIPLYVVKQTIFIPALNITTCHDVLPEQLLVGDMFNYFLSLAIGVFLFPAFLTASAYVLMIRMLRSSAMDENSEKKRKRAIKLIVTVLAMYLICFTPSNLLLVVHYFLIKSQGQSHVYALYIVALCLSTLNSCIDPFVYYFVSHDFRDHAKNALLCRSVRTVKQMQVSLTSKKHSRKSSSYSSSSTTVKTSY
Outline: (§1)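 Cells plated overnight at 37 °C, 5% CO2 in 1% FBS medium; dye loading 45 min at 37 °C then 15 min r.t.; compound added from DMSO/HBSS dilution; first read for intrinsic Ca2+ activation; 30 min r.t. incubation; antagonist read after addition of the fixed activator (8 μM SLIGKV, 1 U/mL thrombin, 3.1 U/mL trypsin or 0.6 μM UTP).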

[2] = system: Thrombin-stimulated Ca2+ response in HT-29 cells; assay: Ca FLIPR TETRA assay, ANTAGONIST mode, stimulation with 1 U/mL Thrombin; assay type: cell-based, human; details: Homo sapiens, HT-29 cells
Outline: as §1

[3] = biological target: T2, PAR2 (HT-29 cells, SLIGKV activation) (Homo sapiens, UniProt P55085); assay: Ca FLIPR TETRA assay, ANTAGONIST mode, stimulation with 8 μM SLIGKV; assay type: cell-based; details: HT-29 cells
T2 construct: host or cells: HT-29 cells
T2 sequence (P55085 26-397): T1 sequence (P55085 26-397)
Outline: as §1

[4] = system: UTP-stimulated Ca2+ response in HT-29 cells; assay: Ca FLIPR TETRA assay, ANTAGONIST mode, stimulation with 0.6 μM UTP; assay type: cell-based, human; details: Homo sapiens, HT-29 cells
Outline: as §1

[5] = stimulation with 3.1 U/mL trypsin
[6] = stimulation with 1 U/mL Thrombin
[7] = antagonist mode, stimulation with 3.1 U/mL trypsin
[8] = antagonist mode, stimulation with 1 U/mL Thrombin
[9] = antagonist mode, stimulation with 8 μM SLIGKV
[10] = antagonist mode, stimulation with 0.6 μM UTP

| Compound | pIC50 [1, 5] | pIC50 [2, 6] | pIC50 ([3]; stimulation with 8 μM SLIGKV) | pIC50 ([4]; stimulation with 0.6 μM UTP) | pIC50 [1, 7] | pIC50 [2, 8] | pIC50 [3, 9] | pIC50 [4, 10] | further results |
| --- | --- | --- | --- | --- | --- | --- | --- | --- | --- |
| O=C(c1cn2nc(-c3ccc(F)cc3)cc(C(F)(F)F)c2n1)N1CCN(CCn2ccnc2)CC1 [Compound I-56] | < 4.30 | < 4.30 | 4.64 | < 4.30 | – | – | – | – | – |
| COC(=O)CC1(C)C(=O)NCCN1C(=O)c1cn2nc(-c3ccc(F)cc3)cc(C(C)(C)C)c2n1 (centres unmarked) [Compound I-509] | – | – | – | – | 6.77 | < 6.00 | 7.08 | < 6.00 | – |
| CC(C)c1cc(-c2ccc(F)cc2)nn2cc(C(=O)N3CCN(C(=O)C(C)(C)O)CC3(C)C)nc12 [Compound I-174] | 7.26 | 4.46 | 7.55 | 4.42 | – | – | – | – | – |
| COC(=O)C1(C)CCC(C(=O)N2CCN(C(=O)c3cn4nc(-c5ccc(F)cc5)cc(C(C)(C)C)c4n3)C(C)(C)C2)CC1 (centres unmarked) [Compound I-526] | – | – | – | – | 9.10 | < 6.00 | 9.22 | < 6.00 | – |
| CC(C)c1cc(-c2ccc(F)cc2)nn2cc(C(=O)N3CCN(CC(C)(C)O)C(=O)C3(C)C)nc12 [Compound I-180] | 7.39 | < 4.30 | 7.49 | 4.74 | – | – | – | – | – |
| CC(C)c1cc(-c2ccc(F)cc2)nn2cc(C(=O)N3CCN(C(=O)c4ncccn4)CC3(C)C)nc12 [Compound I-323] | – | – | – | – | 7.26 | < 6.00 | 7.69 | < 6.00 | – |
| Cc1ccc(-c2cc(C(C)(C)C)c3nc(C(=O)N4CCN(c5c[nH]cn5)C(=O)C4(C)C)cn3n2)cc1F [Compound I-360] | – | – | – | – | 8.52 | < 6.00 | 8.34 | < 6.00 | – |
| CC1(C)CN(C(=O)c2ccncn2)CCN1C(=O)c1cn2nc(-c3ccc(F)cc3)cc(C(F)(F)F)c2n1 [Compound I-268] | – | – | – | – | 6.99 | < 6.00 | 7.19 | < 6.00 | – |
| CC(C)(C)c1cc(-c2ccc(F)cc2)nn2cc(C(=O)N3CCN(C4(CO)CC4)C(=O)C3(C)C)nc12 [Compound I-297] | – | – | – | – | 7.90 | 6.52 | 8.04 | < 6.00 | – |
| CC(C)(C)c1cc(-c2ccc(F)cc2)nn2cc(C(=O)N3CN(C(C)(C)C)C(=O)C3(C)C)nc12 [Compound I-564] | – | – | – | – | – | – | – | – | pIC50 ([1]; antagonist mode, 3.1 U/mL trypsin): 6.71; pIC50 ([2]; antagonist mode, 1 U/mL Thrombin): < 6.00; pIC50 ([3]; antagonist mode, 8 μM SLIGKV): 6.90; pIC50 ([4]; antagonist mode, 0.6 μM UTP): < 6.00 |
| CC(C)c1cc(-c2ccc(C(F)(F)F)cc2)nn2cc(C(=O)N3CCN(C(=O)c4ccncn4)CC3(C)C)nc12 [Compound I-247] | – | – | – | – | 8.15 | < 6.00 | 8.37 | < 6.00 | – |
| Cc1cc(-c2cc(C(C)C)c3nc(C(=O)N4CCN(C(=O)c5nc[nH]n5)CC4(C)C)cn3n2)ccc1F [Compound I-342] | – | – | – | – | 8.09 | < 6.00 | 7.90 | < 6.00 | – |
| CC(C)c1cc(-c2ccc(F)cc2)nn2cc(C(=O)N3CCN(C(=O)C(O)Cc4ccccc4)[C@@H](C)C3)nc12 (some centres unmarked) [Compound I-113] | 8.52 | 5.08 | 9.10 | 5.14 | – | – | – | – | – |
| CC(C)c1cc(-c2ccc(F)cc2)nn2cc(C(=O)N3CCN(C(=O)C(O)C(C)C)[C@@H](C)C3)nc12 (some centres unmarked) [Compound I-116] | 7.14 | 4.72 | 7.92 | 4.66 | – | – | – | – | – |
| O=C(c1cn2nc(-c3ccc(F)cc3)cc(C(F)(F)F)c2n1)N1CCC(n2cc(-c3ccccc3)[nH]c2=O)CC1 [Compound I-80] | 7.09 | < 5.30 | 7.27 | < 5.30 | – | – | – | – | – |
| CC(C)CC(=O)N1CCN(C(=O)c2cn3nc(-c4ccc(F)cc4)cc(C(C)C)c3n2)C[C@@H]1C [Compound I-122] | 7.64 | 5.00 | 8.15 | 5.00 | – | – | – | – | – |
| Cc1nc(C(=O)N2CCN(C(=O)c3cn4nc(-c5ccc(Cl)c(F)c5)cc(C(C)(C)C)c4n3)C(C)(C)C2)n[nH]1 [Compound I-451] | – | – | – | – | 9.52 | < 6.00 | 10.00 | 6.15 | – |
| CC(C)c1cc(C2CCOCC2)nn2cc(C(=O)N3CCN(C(=O)C4(O)CCC4)CC3(C)C)nc12 [Compound I-45, [4-(1-hydroxycyclobutanecarbonyl)-2,2-dimethyl-piperazin-1-yl]-(8-isopropyl-6-tetrahydropyran-4-yl-imidazo[1,2-b]pyridazin-2-yl)methanone] | < 4.30 | < 4.30 | 4.70 | < 4.30 | – | – | – | – | – |

| Compound | pIC50 [1, 5] | pIC50 [2, 6] | pIC50 ([3]; stimulation with 8 μM SLIGKV) | pIC50 ([4]; stimulation with 0.6 μM UTP) | pIC50 [1, 7] | pIC50 [2, 8] | pIC50 [3, 9] | pIC50 [4, 10] | further results |
| --- | --- | --- | --- | --- | --- | --- | --- | --- | --- |
| Cc1cc(-c2cc(C(C)C)c3nc(C(=O)N4CCNC(=O)C4(C)C)cn3n2)ccc1Cl [Compound I-507] | – | – | – | – | 8.31 | < 6.00 | 8.51 | < 6.00 | – |
| Cc1cc(-c2cc(C(C)C)c3nc(C(=O)N4CCN(c5c[nH]cn5)C(=O)C4(C)C)cn3n2)ccc1F [Compound I-388] | – | – | – | – | 7.81 | < 6.00 | 7.90 | < 6.00 | – |
| CC(C)c1cc(-c2ccc(F)cc2)nn2cc(C(=O)N3CCN(C(=O)CC4CC4)[C@@H](C)C3)nc12 [Compound I-140] | 6.60 | 4.82 | 7.85 | 4.85 | – | – | – | – | – |
| Cc1cc(C(=O)N2CCN(C(=O)c3cn4nc(-c5ccc(C)c(F)c5)cc(C(C)C)c4n3)C(C)(C)C2)[nH]n1 [Compound I-335] | – | – | – | – | 9.22 | < 6.00 | 9.10 | < 6.00 | – |
| CC(C)c1cc(-c2ccc(F)cc2)nn2cc(C(=O)N3CCN(C(=O)CC4CCOC4)[C@@H](C)C3)nc12 (some centres unmarked) [Compound I-145] | 6.48 | 4.62 | 7.14 | 4.64 | – | – | – | – | – |
| CCc1cc(-c2ccc(F)cc2)nn2cc(C(=O)N3CCN(C(=O)[C@H](O)CC(C)(C)C)CC3(C)C)nc12 [Compound I-165] | 8.70 | 5.13 | 9.00 | 5.10 | – | – | – | – | – |
| COC(=O)C1CC(C(=O)N2CCN(C(=O)c3cn4nc(-c5ccc(F)cc5)cc(C(C)(C)C)c4n3)C(C)(C)C2)C1 (centres unmarked) [Compound I-537] | – | – | – | – | 8.92 | < 6.00 | 9.10 | < 6.00 | – |
| Cc1n[nH]c(C(=O)N2CCN(C(=O)c3cn4nc(-c5ccc(F)c(C)c5)cc(C(C)(C)C)c4n3)C(C)(C)C2)n1 [Compound I-414] | – | – | – | – | 8.89 | < 6.00 | 9.00 | < 6.00 | – |
| CC(C)c1cc(-c2ccc(F)cc2)nn2cc(C(=O)N3CCN(C(=O)C4(N)CCC4)[C@@H](C)C3)nc12 [Compound I-155] | 5.46 | 4.57 | 6.10 | 4.60 | – | – | – | – | – |
| COC1CC(C(=O)N2CCN(C(=O)c3cn4nc(-c5ccc(F)c(Cl)c5)cc(C(C)C)c4n3)C(C)(C)C2)C1 (centres unmarked) [Compound I-499] | – | – | – | – | 8.02 | < 6.00 | 8.08 | < 6.00 | – |
| O=C(c1cn2nc(-c3ccc(F)cc3)cc(C(F)(F)F)c2n1)N1CC[C@@]2(O)CCCC[C@H]2C1 [Compound I-70] | 5.24 | 4.92 | 5.43 | 4.77 | – | – | – | – | – |
| CC(C)(C)c1cc(-c2ccc(F)cc2)nn2cc(C(=O)N3CCN(C(=O)c4ncc[nH]4)CC3(C)C)nc12 [Compound I-229] | – | – | – | – | 9.10 | < 6.00 | 9.30 | < 6.00 | – |
| C[C@H]1CN(C(=O)c2cn3nc(-c4ccc(F)cc4)cc(C(F)(F)F)c3n2)CCN1C(=O)C(O)Cc1ccccc1 (some centres unmarked) [Compound I-92] | 7.82 | < 5.30 | 8.00 | < 5.30 | – | – | – | – | – |
| Cc1ccc(-c2cc(C(C)(C)C)c3nc(C(=O)N4CCN(c5cn[nH]c5)C(=O)C4(C)C)cn3n2)cc1 [Compound I-364] | – | – | – | – | 8.77 | < 6.00 | 8.82 | < 6.00 | – |
| Cc1nnc(C(=O)N2CCN(C(=O)c3cn4nc(-c5ccc(F)c(C)c5)cc(C(C)(C)C)c4n3)C(C)(C)C2)o1 [Compound I-385] | – | – | – | – | 8.37 | < 6.00 | 8.66 | < 6.00 | – |
| CC(C)(C)c1cc(-c2ccc(C(F)F)cc2)nn2cc(C(=O)N3CCNC(=O)C3(C)C)nc12 [Compound I-349] | – | – | – | – | 8.59 | < 6.00 | 8.52 | < 6.00 | – |
| CC1(c2cc(-c3ccc(F)cc3)nn3cc(C(=O)N4CCN(C(=O)C5(O)CCOCC5)CC4(C)C)nc23)CC1 [Compound I-31, [6-(4-fluorophenyl)-8-(1-methylcyclopropyl)imidazo[1,2-b]pyridazin-2-yl]-[4-(4-hydroxytetrahydropyran-4-carbonyl)-2,2-dimethyl-piperazin-1-yl]methanone] | 7.38 | 4.72 | 7.51 | 4.62 | – | – | – | – | – |
